Source: patent US7747390B2, “Digital cell” (National Institute of Advanced Industrial Science and …, priority 2003, dated 2010)

Assays:
[1] = test system: cells resistant or sensitive to the anticancer agent; assay: Time-lapse profiles of cells exposed to anticancer agent; format: cell-based; conditions: cisplatin 1 μM, 5 μM, 10 μM in medium
Protocol: In this example, cisplatin was used as an exemplary anticancer agent and was mixed into the medium of exposed cells. The concentration of the anticancer agent was selected as appropriate, such as 1 μM, 5 μM, 10 μM, and the like, to observe the reaction of the cells. Cisplatin was applied to cells resistant or sensitive to the anticancer agent. Time-lapse observation was conducted to produce profiles as in the above-described examples.

HEK293 cells = assay: Solid phase transfection with actin-like acting substances (FIG. 1); format: cell-based, human; conditions: pEGFP-N1, Effectene reagent, gelatin as control
Protocol: (§1) The final concentration of DNA was adjusted to 1 μg/μL. An actin-like acting substance was preserved as a stock having a concentration of 10 μg/μL in ddH2O. All dilutions were made using PBS, ddH2O, or Dulbecco's MEM. A series of dilutions, for example, 0.2 μg/μL, 0.27 μg/μL, 0.4 μg/μL, 0.53 μg/μL, 0.6 μg/μL, 0.8 μg/μL, 1.0 μg/μL, 1.07 μg/μL, 1.33 μg/μL, and the like, were formulated.
(§2) Transfection reagents and DNA were mixed to form a DNA-transfection reagent complex. Formation of the complex requires a certain period of time. Therefore, the mixture was spotted onto a solid phase support (e.g., a poly-L-lysine slide) using an arrayer. In Example 2, as a solid phase support, an APS slide, a MAS slide, and an uncoated slide were used as well as a poly-L-lysine slide. These slides are available from Matsunami Glass (Kishiwada, Japan) or the like.
(§3) 300 μL of DNA concentrated buffer (EC buffer)+16 μL of an enhancer were mixed in an Eppendorf tube. The mixture was mixed with a Vortex, followed by incubation for 5 minutes. 50 μL of a transfection reagent (Effectene, etc.) was added to the mixture, followed by mixing by pipetting. To apply a transfection reagent, an annular wax barrier was formed around the spots on the slide. 366 μL of the mixture was added to the spot region surrounded by the wax, followed by incubation at room temperature for 10 to 20 minutes. Thereby, the fixation to the support was manually achieved.
(§4) The growing cells were distributed to a concentration of 10^7 cells/25 mL. The cells were plated on the slide in a 100×100×15 mm squared Petri dish or a 100 mm (radius)×15 mm circular dish. Transfection was conducted for about 40 hours. This period of time corresponded to about 2 cell cycles. The slide was treated for immunofluorescence.
(§5) To quantify transfection efficiency, the present inventors use a DNA microarray scanner (GeneTAC UC4×4, Genomic Solutions Inc., MI). Total fluorescence intensity (arbitrary unit) was measured, and thereafter, fluorescence intensity per unit surface area was calculated.

[2] = test system: cells on transfection array; assay: Transfection efficiency when fibronectin fragments were used (FIGS. 2-4); format: cell-based; conditions: fibronectin fragments or RGD peptide as actin-like acting substance
Protocol: as §1, §2
300 μL of DNA concentrated buffer (EC buffer)+16 μL of an enhancer were mixed in an Eppendorf tube. The mixture was mixed with a Vortex, followed by incubation for 5 minutes. 50 μL of a transfection reagent (Effectene, etc.) was added to the mixture, followed by mixing by pipetting. […]
as §5

[3] = test system: human mesenchymal stem cells (hMSC); assay: Cell adhesion profile and cross-sectional confocal observation in presence or absence of fibronectin (FIGS. 8-10); format: cell-based
[4] = test system: cells on transfection array; assay: Transfection at various fibronectin concentrations on coated and uncoated slides (FIG. 7); format: cell-based
Protocol: as §1, §2, §3, §4, §5

In the case of `N.N.[Cl][Pt][Cl]` [cisplatin], the time-lapse profiles [1] is reported as “varied depending on the difference in cisplatin concentration and resistance/sensitivity”.

For “RGD peptide (tripeptide) [reference compound]”, the “transfection (transfection efficiency)” value (HEK293 cells) was “substantially no effect” and the transfection activity [2] was “increased transfection efficiency was not exhibited”.

In the case of fibronectin, the “transfection (transfection efficiency)” value (HEK293 cells) is reported as “transfection took place to a significant level”, the “surface area of the nucleus” value ([3]; in the presence of fibronectin, FIG. 10) is reported as “significantly increased” and the “extension of adherent cells” value ([3]; initial 3 hours of culture in the presence of fibronectin, FIG. 9) is reported as “full extension of cells”. For the same compound, the “fibronectin concentration at which the effect was further increased” value ([4]; APS coating) was > 1.07 µg/µL, the “fibronectin concentration at which transfection efficiency reached a plateau” value ([4]; PLL coating) was “more than 0.53 μg/μL” and the “fibronectin concentration at which transfection efficiency reached a plateau” value ([4]; absence of coating) was “more than 0.53 μg/μL”. For the same compound, the “transfection efficiency versus fibronectin concentration” value ([4]; fibronectin 0, 0.27, 0.53, 0.8, 1.07, 1.33 μg/μL, FIG. 7) was “increased with an increase in fibronectin concentration”.

For gelatin [reference compound], the “transfection (transfection efficiency)” value (HEK293 cells) was “not very successful”.

laminin was tested, and the “transfection (transfection efficiency)” value (HEK293 cells) was “transfection took place to a significant level”.
